Among the data in ChEMBL document CHEMBL1130240, “Synthesis and structure-activity profiles of A-homoestranes, the estratropones” (J Med Chem, 1997) are IC50 and Activity values, retold here.

Assay [1] deals with T1, Tubulin beta chain (Bos taurus, UniProt Q6B856). The experiment in a line: (§1) Inhibition of tubulin polymerization.
Assay [2] deals with T1, Tubulin beta chain. The assay is described as §1. Format: functional.
The next assay concerns the target Tubulin (Bos taurus) (UniProt Q6B856+Q862L2+Q862F3). The experiment in a line: Inhibition of tubulin polymerization by colchicine to that of compound (IC50colchicine/IC50 drug). In kind it is functional.

pIC50: −log10 of the molar value.

A word on the pIC50: it is −log10 of the IC50, conventionally taken in molar units. Read a low pIC50 as a high IC50.

T1 sequence (Q6B856 whole entry): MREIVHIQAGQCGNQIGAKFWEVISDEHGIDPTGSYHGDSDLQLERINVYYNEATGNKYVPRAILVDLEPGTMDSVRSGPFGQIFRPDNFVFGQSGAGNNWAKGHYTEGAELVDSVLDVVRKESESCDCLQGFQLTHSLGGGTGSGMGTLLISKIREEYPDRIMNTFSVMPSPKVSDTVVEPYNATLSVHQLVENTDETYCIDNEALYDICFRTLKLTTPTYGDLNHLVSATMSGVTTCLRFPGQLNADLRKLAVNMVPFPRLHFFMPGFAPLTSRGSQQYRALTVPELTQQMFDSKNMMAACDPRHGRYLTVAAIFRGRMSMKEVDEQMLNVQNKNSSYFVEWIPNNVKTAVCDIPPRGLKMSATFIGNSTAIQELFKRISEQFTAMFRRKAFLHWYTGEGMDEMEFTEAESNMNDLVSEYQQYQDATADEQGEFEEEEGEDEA

`CCOc1cc2c(ccc1=O)[C@H]1CC[C@]3(C)[C@@H](O)CC[C@H]3[C@@H]1CC2` showed a negative-log IC50 (pIC50) at Tubulin beta chain [1] of 5.23.

For `C[C@]12CC[C@@H]3c4ccc(Br)c(=O)cc4CC[C@H]3[C@@H]1CC[C@@H]2O`, at Tubulin beta chain [2], the negative logarithm of the IC50 (pIC50) is 5.54. For the same compound, the Activity on Tubulin (Bos taurus) came out at 3.9.

`COc1cc2c(ccc1=O)CC[C@@H]1[C@@H]2CC[C@]2(C)[C@@H](O)CC[C@@H]12` had a pIC50 at Tubulin beta chain [1] of 4.53.

The compound `C[C@]12CC[C@@H]3c4cccc(=O)cc4CC[C@H]3[C@@H]1CC[C@@H]2O` had a pIC50 against Tubulin beta chain [1] of 5.14.

In turn, `C[C@]12CC[C@@H]3c4ccc(=O)ccc4CC[C@H]3[C@@H]1CC[C@@H]2O` had a pIC50 against Tubulin beta chain [2] of 5.36. At Tubulin (Bos taurus), this compound came in with an Activity of 2.5.

Take `C[C@]12CC[C@@H]3c4ccc(=O)c(Cl)cc4CC[C@H]3[C@@H]1CC[C@@H]2O`: at Tubulin beta chain [2], the negative-log IC50 (pIC50) was 5.01. The compound further came in with an Activity at Tubulin (Bos taurus) of 1.1.

On Tubulin beta chain [1], `COc1cc2c(cc1O)CC[C@@H]1[C@@H]2CC[C@]2(C)[C@@H](O)CC[C@@H]12` [2-METHOXYESTRADIOL] had a pIC50 of 4.85.

Compound `C[C@]12CC[C@@H]3c4ccc(Cl)c(=O)cc4CC[C@H]3[C@@H]1CC[C@@H]2O` showed a pIC50 against Tubulin beta chain [2] of 5.55. For the same compound, the Activity at Tubulin (Bos taurus) worked out at 4.

On Tubulin beta chain [1], `C[C@]12CC[C@@H]3c4ccc(=O)c(Br)cc4CC[C@H]3[C@@H]1CC[C@@H]2O` had a negative-log IC50 (pIC50) of 4.95.

Regarding `COc1ccc2c(cc1=O)CC[C@@H]1[C@@H]2CC[C@]2(C)[C@@H](O)CC[C@@H]12`, the negative logarithm of the IC50 (pIC50) against Tubulin beta chain [1] was 5.09.

On Tubulin beta chain [1], `COc1ccc2c(cc1=O)[C@H]1CC[C@]3(C)[C@@H](O)CC[C@H]3[C@@H]1CC2` gave a negative logarithm of the IC50 (pIC50) of 4.56. Compared with the last compound, the pIC50 is 0.53 log units lower.

With `COc1cc2c(ccc1=O)[C@H]1CC[C@]3(C)[C@@H](O)CC[C@H]3[C@@H]1CC2`, on Tubulin beta chain [1], the pIC50 is 5.68.
